Assays:
[1] = test system: NPY-induced feeding behavior in satiated rats; test: NPY-induced food intake in satiated rats; type: in vivo, rat; settings: compound 30 mg/kg i.p., then 300 pmole NPY i.c.v., 4 hours after NPY, in g (unit assumed)
Method: For these determinations food intake maybe measured in normal satiated rats after intracerebroventricular application (i.c.v.) of NPY in the presence or absence of the test compound. Male Sprague Dawley rats ciba-Geigy AG, Sisseln, Switzerland weighing between 180 g and 220 g are used for all experiments. The rats are individually housed in stainless steel cages and maintained on an 11:13 h light-dark cycle (lights off at 18:00 h) at a controlled temperature of 21-23° C. at all times. Water and food (NAFAG lab chow pellets, NAFAG, Gossau, Switzerland) are available ad libidum.
Rats under pentobarbital anesthesia are stereotaxically implanted with a stainless steel guide cannula targeted at the right lateral ventricle. Stereotaxic coordinates, with the incisor bar set −2.0 mm below interaural line, are: −0.8 mm anterior and +1.3 mm lateral to bregma. The guide cannula is placed on the dura. […]
Food intake may be measured by placing preweighed pellets into the cages at the time of NPY injection. […] The food intake of animals treated with test compound may be calculated as a percentage of the food intake of control animals, i.e., animals treated with vehicle. Alternatively, food intake for a group of animals subjected to the same experimental condition may be expressed as the mean ±S.E.M. Statistical analysis is performed by analysis of variance using the Student-Newman-Keuls test. […]

5HT1a = 5HT1a (Homo sapiens, UniProt P08908); test: Binding to cloned human 5HT1a receptor
Chain of 5HT1a (P08908 whole entry): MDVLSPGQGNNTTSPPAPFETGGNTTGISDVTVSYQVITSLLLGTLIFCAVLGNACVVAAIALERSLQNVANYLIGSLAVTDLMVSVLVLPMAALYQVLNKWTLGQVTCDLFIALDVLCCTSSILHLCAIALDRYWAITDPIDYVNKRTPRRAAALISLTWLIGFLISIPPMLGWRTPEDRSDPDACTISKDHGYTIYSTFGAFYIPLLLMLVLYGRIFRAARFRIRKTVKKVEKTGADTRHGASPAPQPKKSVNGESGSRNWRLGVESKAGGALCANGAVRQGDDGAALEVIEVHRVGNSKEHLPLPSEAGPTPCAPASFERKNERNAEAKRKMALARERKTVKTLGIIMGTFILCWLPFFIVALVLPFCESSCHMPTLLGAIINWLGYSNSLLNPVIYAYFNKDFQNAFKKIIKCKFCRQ

human 5HT1E receptor = biological target: T1, human 5HT1E receptor (Homo sapiens, UniProt P28566); test: Binding to human 5HT1E receptor ([3H]serotonin); settings: cloned human receptor
T1 construct: expressed in transfected cells
T1 sequence (P28566 whole entry): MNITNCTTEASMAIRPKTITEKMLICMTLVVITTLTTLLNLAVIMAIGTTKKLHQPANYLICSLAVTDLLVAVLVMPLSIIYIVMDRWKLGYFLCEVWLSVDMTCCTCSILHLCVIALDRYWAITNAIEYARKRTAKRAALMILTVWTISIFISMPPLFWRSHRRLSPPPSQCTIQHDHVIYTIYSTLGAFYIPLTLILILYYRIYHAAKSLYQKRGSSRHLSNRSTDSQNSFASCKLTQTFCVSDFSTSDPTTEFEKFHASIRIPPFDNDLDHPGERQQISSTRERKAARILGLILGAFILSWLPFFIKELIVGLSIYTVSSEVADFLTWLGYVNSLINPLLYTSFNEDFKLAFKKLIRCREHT
Method: 5HT1Dα, 5HT1Dβ, 5HT1E, 5HT1F Receptors: LM(tk−) clonal cell lines stably transfected with the genes encoding each of these 5HT receptor subtypes were prepared as described above. The cell line for the 5HT1Dα, receptor, designated as Ltk−8-30-84, was deposited on Apr. 17, 1990, and accorded ATCC Accession No. CRL 10421. The cell for the 5HT1Dβ receptor, designated as Ltk−11, was deposited on Apr. 17, 1990, and accorded ATCC Accession No. CRL 10422. The cell line for the 5HT1E receptor, designated 5 HT1E-7, was deposited on Nov. 6, 1991, and accorded ATCC Accession No. CRL 10913. The cell line for the 5HT1F receptor, designated L-5-HT1F, was deposited on Dec. 27, 1991, and accorded ATCC Accession No. ATCC 10957. Membrane preparations comprising these receptors were prepared as described below, and suspended in 50 mM Tris-HCl buffer (pH 7.4 at 37° C.) containing 10 mM MgCl2, 0.2 mM EDTA, 10 μM pargyline, and 0.1% ascorbate. The binding of compounds was determined in competition binding assays by incubation for 30 minutes at 37° C. in the presence of 5 nM [^3H) serotonin. Nonspecific binding was determined in the presence of 10 μM serotonin. The bound radioligand was separated by filtration through GF/B filters using a cell harvester.

human α2C receptor = biological target: T2, human α2C receptor (Homo sapiens, UniProt P18825); test: Binding to cloned human α2C adrenergic receptor ([3H]rauwolscine)
T2 construct: expressed in transfected cells
T2 sequence (P18825 whole entry): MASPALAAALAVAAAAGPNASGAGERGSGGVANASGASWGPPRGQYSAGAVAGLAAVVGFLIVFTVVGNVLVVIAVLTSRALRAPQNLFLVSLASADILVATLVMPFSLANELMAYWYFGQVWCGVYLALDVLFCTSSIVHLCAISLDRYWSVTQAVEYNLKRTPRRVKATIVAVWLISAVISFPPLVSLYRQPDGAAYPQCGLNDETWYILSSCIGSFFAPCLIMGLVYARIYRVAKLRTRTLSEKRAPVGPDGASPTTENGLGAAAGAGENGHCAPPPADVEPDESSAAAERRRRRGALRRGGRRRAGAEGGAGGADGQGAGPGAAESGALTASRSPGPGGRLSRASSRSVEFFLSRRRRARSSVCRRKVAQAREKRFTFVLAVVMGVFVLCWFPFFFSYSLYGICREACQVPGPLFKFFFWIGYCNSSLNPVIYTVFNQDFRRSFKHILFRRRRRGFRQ
Method: α2 Human Adrenergic Receptors: To determine the binding of compounds to human α2 receptors, LM(tk−) cell lines stably transfected with the genes encoding the α2A, α2B, and α2C receptors were used. […] Cell lysates were prepared as described below (see Radioligand Dinding to Membrane Suspensions), and suspended in 25 mM glycylglycine buffer (pH 7.6 at room temperature). Equilibrium competition binding assay were performed using [^3H]rauwolscine (0.5 nM), and nonspecific binding was determined by incubation with 10 μM phentolamine.

[2] = biological target: T3, human histamine H2 receptor (Homo sapiens, UniProt P25021); test: Binding to human histamine H2 receptor ([3H]tiotidine); settings: cloned human receptor
T3 construct: expressed in transfected cells; host or cells: COS-7 cells, transient (DEAE-dextran), plasmid pcEXV-H2 (ATCC 75345)
T3 sequence (P25021 whole entry): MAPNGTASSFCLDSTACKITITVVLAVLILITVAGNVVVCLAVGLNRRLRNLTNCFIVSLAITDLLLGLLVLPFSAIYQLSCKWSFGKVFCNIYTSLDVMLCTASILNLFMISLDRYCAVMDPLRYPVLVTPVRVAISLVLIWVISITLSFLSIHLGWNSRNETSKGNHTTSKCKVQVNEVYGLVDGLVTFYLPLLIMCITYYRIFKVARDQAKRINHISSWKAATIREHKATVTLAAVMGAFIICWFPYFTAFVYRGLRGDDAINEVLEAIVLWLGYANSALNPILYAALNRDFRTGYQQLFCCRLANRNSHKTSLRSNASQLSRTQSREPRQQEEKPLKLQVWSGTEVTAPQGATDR
Method: The binding of the histamine H2 antagonist [^3H]tiotidine (5 nM, specific activity: 70 Ci/mM) was done in a final volume of 0.25 ml and incubated at room temperature for 60 min. Nonspecific binding was determined in the presence of 10 μM histamine.

Compound: Cl.O=S(=O)(NCC1CCC(CNCC2CCc3ccccc3C2)CC1)c1cccc2ccccc12 (stereo not drawn) [Example 32]
- NPY-induced cumulative food intake (NPY + compound), mean ± S.E.M. [1]: 1.5 ± 0.6
- Receptor (pKi) 5HT1a (5HT1a): 5.54
- Receptor (pKi) 5HT1E (human 5HT1E receptor): ≤ 5.30

Compound: Cl.O=[N+]([O-])c1ccccc1S(=O)(=O)NCC1CCC(CNCC2CCc3ccccc3C2)CC1 (stereo not drawn) [Example 36]
- Receptor (pKi) α2c (human α2C receptor): 7.39
- Receptor (pKi) H2 [2]: 5.85
- Receptor (pKi) 5HT1E (human 5HT1E receptor): ≤ 5.30

From patent US6734182B2, “Aryl sulfonamides and sulfamide derivatives and uses thereof” (Synaptic Pharmaceutical Corporation, priority 1995, dated 2004)
